Laboratory results published in US5674878A, “Anellated dihydropyridines and the use thereof for the production of pharmaceutical preparations” (Boehringer Ingelheim KG, priority 1992, dated 1997).

Tested on: unselective cation channels (UCC)
Assay: Thapsigargin (0.1 μM) stimulated Ca^2+ entry through unselective cation channels in fura-2-charged RBL-hm 1 cells
Format: cell-based, rat
Conditions: RBL-hm 1 cells, Thapsigargin (0.1 μM) stimulation, 10 μM test substance (Table 21)
Source text: As a measurement of the cell activation or as a measurement of the inhibition thereof by UCC blockers, the kinetics of the cytoplasmic calcium ion concentration in fura-2-charged cells is quantified fluorometrically using the method described by GRYNKIEWICZ et al. (1985).
Consequently the Ca^2+ -stores are rapidly depleted. As described by J. PUTNEY (Calcium, 11, 611-624, 1990) the depletion of these stores constitutes the physiological stimulation for opening up unselective cation channels in the cell membrane. The result of this is a massive influx of Na^+ and Ca^2+ into the cell. Because of these properties, Thapsigargin is suitable as an indirect stimulator for agonist- and IP3-independent opening up of the unselective cation channels.
The functional endothelin antagonism of the substances according to the invention is mediated through a blockade of the unselective cation channels. Consequently, detection of a functional Thapsigargin-antagonism on RBL-hm1 cells is also a suitable screening method for functional endothelin antagonists.
For screening purposes, fura-2-charged adhesive RBL-hm 1 cells are stimulated with 0.1 μM Thapsigargin in a Ca^2+ -free incubation medium. After 4 minutes, extracellular Ca^2+ is restored to a concentration of 1.5 mM and, using the fura-2-fluorescence, the excessive increase in the cytoplasmic Ca^2+ -concentration caused by a massive transmembranal Ca^2+ -entry through unselective cation channels is recorded.
This entry is to be inhibited solely by unselective cation channel blockers in a dosage-dependent manner. Neither conventional calcium antagonists nor specific blockers of agonists which stimulate the IP3 -turnover are able to inhibit the transmembranal Ca^2+ -entry triggered indirectly by Thapsigargin. The compounds of the present invention are distinguished by their inhibition of UCC.
The fluorometric calcium measurement in the cytoplasm of individual adhering RBL-hm1 cells is carried out analogously to the method described by KUDO and OGURA (1986) for neuronal cells. An AXIOVERT 35 fluorescence microscope made by ZEISS is used in conjunction with an imaging system made by HAMAMATSU, consisting of the ICMS-image processing system, residual light camera with control unit and image intensifier DVS 3000.
The kinetics of the cytoplasmic Ca^2+ -concentration is recorded continuously as a concentration/time curve after the cell activation stimulated by Thapsigargin (0.1 μM). The curves of two activated cell cultures are compared in the presence and absence of 10 μM test substance. The area under these curves (area under the curve=AUC) is integrated and recorded as a measurement of cell activation. The inhibitory potency of the UCC-blockers tested is determined using the following equation: [formula] %H=the percentage inhibition of the calcium entry through unselective cation channels which is stimulated and inhibited by 10 μM of test substance.
AUCinh =area under the curve recorded in the presence of the stimulant plus 10 μM inhibitory test substance.
AUCcontrol =area under the curve which is recorded only after the addition of the stimulant.
The percentage inhibition of UCC after Thapsigargin stimulation (0.1 μM Thapsigargin) in RBL-hm 1 cells is given. The uniform concentration of the test substances is 10^-5 mol).

Going from `COc1cc2c(cc1OC)C(=C(C(=O)NC(Cc1ccccc1)c1ccccc1)c1ccccc1)NCC2` (stereo not shown) [Q] to `COc1cc2c(cc1OC)C(=C(C(=O)N1CCN(Cc3ccccc3)CC1)c1ccccc1)NCC2` [compound 42], the “% Inhibition” value rises from 64.28% to 84.83%.

Going from `COCCNC(=O)C(=C1NCCc2cc(OC)c(OC)cc21)c1ccccc1` [compound 17] to `COCCCNC(=O)C(=C1NCCc2cc(OC)c(OC)cc21)c1ccccc1` [compound 18], the “% Inhibition” value rises from 52.53% to 57.53%.

Going from `COc1cc2c(cc1OC)C(=C(C(=O)NCCCN(C)C)c1ccccc1)NCC2` [compound 20] to `COc1cc2c(cc1OC)C(=C(C(=O)NCCc1ccc(OC)c(C)c1C)c1ccccc1)NCC2` [compound 109], the “% Inhibition” value rises from 57.38% to 74.18%.

Going from `COc1cc2c(cc1OC)C(C(C(=O)Nc1cccnc1)c1ccccc1)=NCC2` (stereo not shown) [compound 33] to `COc1cc2c(cc1OC)C(C(C(=O)NCCc1ccccc1C)c1ccccc1)=NCC2` (stereo not shown) [compound 102], the “% Inhibition” value rises from 60.55% to 80.77%.

First: COc1cc2c(cc1OC)C(C(C(=O)N(C)C)c1ccccc1)=NCC2 (stereo not shown) [compound 36]
Second: CCN(CC)C(=O)C(C1=NCCc2cc(OC)c(OC)cc21)c1ccccc1 (stereo not shown) [compound 37]
The “% Inhibition” value of the first is lower: 52.19% for the first, 75.77% for the second.

First: COc1cc2c(cc1OC)C(C(C(=O)N1CCOCC1)c1ccccc1)=NCC2 (stereo not shown) [compound 39]
Second: COc1cc2c(cc1OC)C(C(C(=O)N1CCSCC1)c1ccccc1)=NCC2 (stereo not shown) [compound 40]
The “% Inhibition” value of the first is lower: 48.62% for the first, 64.99% for the second.

Going from `COc1cc2c(cc1OC)C(C(C(=O)N1CCN(C)CC1)c1ccccc1)=NCC2` (stereo not shown) [compound 43] to `COc1cc2c(cc1OC)C(C(C(=O)NCc1cc(C)ccc1C)c1ccccc1)=NCC2` (stereo not shown) [compound 106], the “% Inhibition” value rises from 48.69% to 65.69%.

First: O=C(NCCc1ccc2c(c1)OCO2)C(=C1NCCc2cc3c(cc21)OCO3)c1ccccc1 [compound 46]
Second: O=C(NCCN1CCOCC1)C(=C1NCCc2cc3c(cc21)OCO3)c1ccccc1 [compound 48]
The “% Inhibition” value of the first is higher: 68.06% for the first, 61.34% for the second.

First: COc1ccc(CCNC(=O)C(=C2NCCc3c2[nH]c2ccccc32)c2ccccc2)cc1OC [compound 83]
Second: O=C(NCCN1CCOCC1)C(=C1NCCc2c1[nH]c1ccccc21)c1ccccc1 [compound 89]
The “% Inhibition” value of the first is higher: 66.76% for the first, 53.38% for the second.

Compared with `COc1cc2c(cc1OC)C(C(C(=O)NCCC(c1ccccc1)c1ccccc1)c1ccccc1)=NCC2` (stereo not shown) [compound 101], `CCOc1ccccc1CCCNC(=O)C(C1=NCCc2cc(OC)c(OC)cc21)c1ccccc1` (stereo not shown) [compound 115] is higher in “% Inhibition” value: 59.62% for the first, 75.53% for the second.

Going from `COc1cc(CCNC(=O)C(C2=NCCc3cc(OC)c(OC)cc32)c2ccccc2)cc(OC)c1` (stereo not shown) [compound 104] to `COc1cccc(CCNC(=O)C(C2=NCCc3cc(OC)c(OC)cc32)c2ccccc2)c1` (stereo not shown) [compound 105], the “% Inhibition” value falls from 54.67% to 45.09%.

Compared with `COc1cc2c(cc1OC)C(C(C(=O)NCCCc1ccc(OC)c(OC)c1OC)c1ccccc1)=NCC2` (stereo not shown) [compound 108], `COc1cc(N=[N+]=[N-])ccc1CCNC(=O)C(C1=NCCc2cc(OC)c(OC)cc21)c1ccccc1` (stereo not shown) [compound 133] is higher in “% Inhibition” value: 44.45% for the first, 68.15% for the second.

With `COc1cc2c(cc1OC)C(=C(C(=O)NCC13CC4CC(CC(C4)C1)C3)c1ccccc1)NCC2` [compound 132] the “% Inhibition” value was 65.14%.

Same assay, conditions: Table 16; %inhibition, 10 μM test substance

With `O=C(NCCc1cccc(C(F)(F)F)c1)C(C1=NCCc2cc(OCc3ccccc3)c(Cl)cc21)c1ccccc1` (stereo not shown) [drawing 223] the “%” value was 32.90%.

Same assay, conditions: Table 17; 10 μM test substance

Compared with `COc1cc2c(cc1OC)C(C(C(=O)NCCC(C)(C)C)c1ccccc1)=NCC2` (stereo not shown), `COc1cc(N=[N+]=[N-])ccc1CCNC(=O)C(C1=NCCc2cc(OC)c(OC)cc21)c1ccccc1` (stereo not shown) [drawing 231] is lower in “percent inhibition of Ca2+ entry” value: 80.97% for the first, 68.2% for the second.

Same assay, conditions: Table 20; 10 μM test substance

Going from `COc1cc2c(cc1O)CCN=C2C(C(=O)N(CCc1ccc(OC)c(OC)c1OC)CCc1ccc(OC)c(OC)c1OC)c1ccccc1` (stereo not shown) to `O=C(NCCc1cccc(C(F)(F)F)c1)C(C1=NCCc2cc(OCc3ccccc3)c(Cl)cc21)c1ccccc1` (stereo not shown) [drawing 274], the “percent inhibition of Ca2+ entry” value falls from 86.70% to 32.9%.

Tested on: RBL-2H3-cells
Assay: DNP-BSA antigen-induced activation of sensitised RBL-2H3 cells
Format: cell-based
Conditions: Rattus norvegicus, read-out: inhibition of the antigen-induced cell activation
Experimental: Individual RBL-2H3-cells (a tumour cell line related to the mast cells) adhering to glass slides are used.
The cultivation and attachment of the RBL-2H3-cells are carried out by the method described by HIDE and BEAVEN (1991). In order to sensitise the adhesive RBL-2H3-cells the cells are incubated for 2 hours at ambient temperature with a 1:2000 diluted commercial gammaglobulin E-solution against a dinitrophenol-bovine serum albumin complex (DNP-BSA-antigen). The cells are then washed. By the addition of 0.1 ml of DNP-BSA-solution (10 μg/ml) there is a massive immunological cell activation which is mediated by a cytoplasmic Ca^2+ -overload. The fluorometric calcium measurement in the cytoplasm of individual adhering RBL-2H3-cells is carried out analogously to the method described by KUDO and OGURA (1986) for neuronal cells, which is also explained hereinbefore in this specification.

In the case of `O=C(O)c1cc(=O)c2c(OCC(O)COc3cccc4oc(C(=O)O)cc(=O)c34)cccc2o1` [chromoglycate], the inhibition at 10 µM is reported as ~50%.

Tested on: unselective cation channels (UCC)
Assay: Thapsigargin (0.1 μM) stimulated Ca^2+ entry through unselective cation channels in fura-2-charged RBL-hm 1 cells
Format: cell-based, rat
Conditions: Table 17

`COc1cc2c(cc1OC)C(C(C(=O)NCCC(C)(C)C)c1ccccc1)=NCC2` (stereo not shown) gave an IC50 of 7.57 µM.

Same assay, conditions: Table 20

Work on `COc1cc2c(cc1O)CCN=C2C(C(=O)N(CCc1ccc(OC)c(OC)c1OC)CCc1ccc(OC)c(OC)c1OC)c1ccccc1` (stereo not shown) yielded an IC50 of 3.47 µM.

Tested on: Ca^2+-ATPase of intracellular IP3-sensitive Ca^2+-stores
Assay: not given
Conditions: in words; cited from earlier work

In the case of `C/C=C(/C)C(=O)O[C@H]1C(C)=C2[C@H]([C@@H]1OC(=O)CCCCCCC)[C@@](C)(OC(C)=O)C[C@H](OC(=O)CCC)[C@@]1(O)[C@H]2OC(=O)[C@@]1(C)O` [THAPSIGARGIN], the “inhibition of Ca^2+-ATPase” value is listed as “selectively and irreversibly inhibits”.
